According to US9266878B2, “Phosphatidylinositol 3-kinase inhibitors” (Gilead Calistoga LLC, priority 2012, dated 2016):

How the values were obtained:
Assay in all cases: Enzymatic activity of PI3K isoforms, TR-FRET assay (PIP3 formation)
Type in all cases: biochemical
PI3Kα = PI3Kα (Homo sapiens (Human), UniProt P42336)
Outline: (§1)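 After 30 min at 25° C, reactions were quenched with 10 mM EDTA plus 10 nM labeled-PIP3 and 35 nM Europium-GRP-1, and TR-FRET was read (Ex 340, Em 615/665 nm). Enzymes were purified recombinant heterodimers; product PIP3 competes off the labeled tracer. Values given as IC50, nM.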

PI3Kδ = PI3Kδ (Homo sapiens (Human), UniProt O00329); details: bound given in nM
Outline: as §1

PI3Kβ = PI3Kβ (Homo sapiens (Human), UniProt P42338)
Outline: (§2)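 IC50 (nM) reflects inhibition of PIP3 formation by purified recombinant heterodimeric PI3K, measured as loss of TR-FRET signal. The read-out comes from competition between enzyme-made PIP3 and labelled PIP3 for binding to the GRP-1 pleckstrin homology domain.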

PI3Kγ = PI3Kγ (Homo sapiens (Human), UniProt P48736)
Outline: as §2

Sequence of PI3Kβ (P42338 whole entry, the tested form may be a part): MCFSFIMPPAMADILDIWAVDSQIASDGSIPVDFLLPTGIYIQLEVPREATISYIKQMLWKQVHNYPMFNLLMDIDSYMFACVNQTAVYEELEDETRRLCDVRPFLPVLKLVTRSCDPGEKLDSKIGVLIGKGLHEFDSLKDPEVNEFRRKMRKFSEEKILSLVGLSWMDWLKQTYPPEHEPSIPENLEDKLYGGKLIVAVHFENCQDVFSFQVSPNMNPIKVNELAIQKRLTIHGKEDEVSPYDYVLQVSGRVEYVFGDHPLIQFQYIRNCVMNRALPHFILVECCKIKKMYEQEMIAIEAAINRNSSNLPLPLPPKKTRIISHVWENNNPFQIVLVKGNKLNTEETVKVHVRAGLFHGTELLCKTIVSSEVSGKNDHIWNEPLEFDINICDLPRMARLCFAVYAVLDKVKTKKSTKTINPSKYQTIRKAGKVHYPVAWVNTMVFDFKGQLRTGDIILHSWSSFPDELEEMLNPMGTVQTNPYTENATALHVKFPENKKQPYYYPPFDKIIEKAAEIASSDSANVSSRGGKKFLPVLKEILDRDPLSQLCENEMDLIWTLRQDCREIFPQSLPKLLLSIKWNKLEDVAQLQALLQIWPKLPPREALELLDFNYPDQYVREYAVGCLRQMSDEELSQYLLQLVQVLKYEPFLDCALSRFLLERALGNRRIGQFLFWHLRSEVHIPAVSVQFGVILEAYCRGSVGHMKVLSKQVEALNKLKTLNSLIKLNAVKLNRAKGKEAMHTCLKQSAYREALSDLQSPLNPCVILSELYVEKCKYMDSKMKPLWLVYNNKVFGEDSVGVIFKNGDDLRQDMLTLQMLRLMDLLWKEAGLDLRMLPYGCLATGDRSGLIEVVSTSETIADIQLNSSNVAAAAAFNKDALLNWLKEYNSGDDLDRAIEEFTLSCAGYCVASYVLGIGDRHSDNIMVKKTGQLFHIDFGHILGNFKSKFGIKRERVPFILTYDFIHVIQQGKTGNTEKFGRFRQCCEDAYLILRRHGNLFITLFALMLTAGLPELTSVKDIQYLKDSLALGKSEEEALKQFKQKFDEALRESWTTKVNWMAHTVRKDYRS
Sequence of PI3Kβ (P27986 whole entry partner, the tested form may be a part): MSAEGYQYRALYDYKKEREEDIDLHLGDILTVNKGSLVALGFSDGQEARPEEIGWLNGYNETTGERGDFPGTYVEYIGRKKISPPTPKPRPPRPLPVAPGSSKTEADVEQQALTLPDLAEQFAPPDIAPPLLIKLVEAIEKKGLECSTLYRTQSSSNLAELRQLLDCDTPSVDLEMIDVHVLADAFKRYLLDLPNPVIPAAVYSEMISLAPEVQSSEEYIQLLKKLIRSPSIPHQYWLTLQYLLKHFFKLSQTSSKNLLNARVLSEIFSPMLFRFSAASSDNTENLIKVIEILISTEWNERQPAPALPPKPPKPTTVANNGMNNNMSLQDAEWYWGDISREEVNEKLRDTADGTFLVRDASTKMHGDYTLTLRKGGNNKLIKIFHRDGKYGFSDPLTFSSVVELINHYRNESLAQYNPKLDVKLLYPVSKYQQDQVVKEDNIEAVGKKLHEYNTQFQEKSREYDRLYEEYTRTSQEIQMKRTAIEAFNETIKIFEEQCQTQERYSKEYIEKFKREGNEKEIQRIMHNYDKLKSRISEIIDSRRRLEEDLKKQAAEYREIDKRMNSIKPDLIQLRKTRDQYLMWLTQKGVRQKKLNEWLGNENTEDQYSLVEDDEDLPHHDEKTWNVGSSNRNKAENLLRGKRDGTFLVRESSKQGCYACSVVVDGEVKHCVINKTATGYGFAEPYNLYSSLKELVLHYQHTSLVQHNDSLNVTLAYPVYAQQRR
Sequence of PI3Kδ (O00329 whole entry): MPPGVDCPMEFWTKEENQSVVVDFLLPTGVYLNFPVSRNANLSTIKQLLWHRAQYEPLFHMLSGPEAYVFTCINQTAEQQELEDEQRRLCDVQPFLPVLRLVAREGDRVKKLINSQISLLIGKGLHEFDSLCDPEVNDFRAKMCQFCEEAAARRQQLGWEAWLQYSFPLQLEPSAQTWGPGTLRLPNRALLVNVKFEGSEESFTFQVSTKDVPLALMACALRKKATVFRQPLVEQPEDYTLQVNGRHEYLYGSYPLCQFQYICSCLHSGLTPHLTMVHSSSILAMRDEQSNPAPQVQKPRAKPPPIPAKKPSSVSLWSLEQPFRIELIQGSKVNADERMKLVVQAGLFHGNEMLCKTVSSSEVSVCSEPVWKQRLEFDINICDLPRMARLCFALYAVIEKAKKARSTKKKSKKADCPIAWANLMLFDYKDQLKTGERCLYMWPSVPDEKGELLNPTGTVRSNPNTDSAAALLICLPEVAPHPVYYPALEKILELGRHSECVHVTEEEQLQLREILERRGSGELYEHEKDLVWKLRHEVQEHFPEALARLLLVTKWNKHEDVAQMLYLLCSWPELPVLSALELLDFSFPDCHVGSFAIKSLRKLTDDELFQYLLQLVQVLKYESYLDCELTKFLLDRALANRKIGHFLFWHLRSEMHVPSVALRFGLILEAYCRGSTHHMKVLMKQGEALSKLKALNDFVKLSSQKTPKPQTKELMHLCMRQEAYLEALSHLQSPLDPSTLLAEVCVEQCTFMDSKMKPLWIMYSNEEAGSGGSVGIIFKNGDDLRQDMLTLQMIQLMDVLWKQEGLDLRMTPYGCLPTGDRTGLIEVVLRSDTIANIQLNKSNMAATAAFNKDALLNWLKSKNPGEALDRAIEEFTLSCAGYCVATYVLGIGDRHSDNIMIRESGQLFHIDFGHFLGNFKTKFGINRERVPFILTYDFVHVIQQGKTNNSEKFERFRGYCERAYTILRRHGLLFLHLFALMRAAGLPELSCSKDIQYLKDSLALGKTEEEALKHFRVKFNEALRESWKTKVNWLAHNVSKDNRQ
Sequence of PI3Kδ (P27986 whole entry partner): as the sequence (P27986 whole entry partner, the tested form may be a part) above
Sequence of PI3Kα (P42336 whole entry): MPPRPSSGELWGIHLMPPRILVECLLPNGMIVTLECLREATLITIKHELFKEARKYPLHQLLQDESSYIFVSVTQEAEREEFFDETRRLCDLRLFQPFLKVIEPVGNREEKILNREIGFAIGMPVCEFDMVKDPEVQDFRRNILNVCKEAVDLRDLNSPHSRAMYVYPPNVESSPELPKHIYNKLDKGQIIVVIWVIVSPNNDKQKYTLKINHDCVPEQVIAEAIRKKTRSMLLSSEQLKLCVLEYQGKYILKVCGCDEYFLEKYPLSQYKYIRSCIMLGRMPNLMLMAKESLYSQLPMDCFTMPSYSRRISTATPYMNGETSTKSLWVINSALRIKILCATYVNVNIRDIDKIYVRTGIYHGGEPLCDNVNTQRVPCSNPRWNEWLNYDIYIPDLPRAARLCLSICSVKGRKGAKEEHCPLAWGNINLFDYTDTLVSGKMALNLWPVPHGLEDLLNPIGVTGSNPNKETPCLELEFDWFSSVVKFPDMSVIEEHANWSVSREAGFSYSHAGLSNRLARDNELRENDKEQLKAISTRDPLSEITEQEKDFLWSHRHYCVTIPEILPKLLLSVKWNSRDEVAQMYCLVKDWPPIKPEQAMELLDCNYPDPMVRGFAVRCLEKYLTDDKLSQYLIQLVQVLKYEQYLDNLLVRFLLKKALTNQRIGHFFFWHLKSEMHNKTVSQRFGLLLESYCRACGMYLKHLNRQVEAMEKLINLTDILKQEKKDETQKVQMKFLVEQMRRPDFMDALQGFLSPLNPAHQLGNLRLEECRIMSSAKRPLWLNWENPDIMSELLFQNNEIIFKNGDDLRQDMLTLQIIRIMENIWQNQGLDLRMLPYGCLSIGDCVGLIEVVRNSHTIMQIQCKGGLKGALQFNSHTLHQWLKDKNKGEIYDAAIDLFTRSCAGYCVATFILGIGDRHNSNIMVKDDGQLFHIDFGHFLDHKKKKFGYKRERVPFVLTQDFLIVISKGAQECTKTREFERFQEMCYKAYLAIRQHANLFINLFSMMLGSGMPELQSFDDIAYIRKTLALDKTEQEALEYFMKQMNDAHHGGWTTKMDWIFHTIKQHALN
Sequence of PI3Kα (P27986 whole entry partner): as the sequence (P27986 whole entry partner, the tested form may be a part) above

Compound | IC50 (PI3Kα; bound given in nM) [nM] | IC50 (PI3Kδ) [nM] | IC50 (PI3Kβ; bound given in nM) [nM] | IC50 (PI3Kγ; bound given in nM) [nM] | IC50 (PI3Kα; bound given in uM) [nM] | IC50 (PI3Kβ; bound given in uM) [nM] | IC50 (PI3Kγ; bound given in uM) [nM]
C[C@H](Nc1ncnc(N)c1C#Cc1ccc(N)cn1)c1nc2cccc(Cl)c2c(=O)n1-c1ccccc1 [Compound 35a, (S)-2-(1-(6-amino-5-((5-aminopyridin-2-yl)ethynyl)pyrimidin-4-ylamino)ethyl)-5-chloro-3-phenylquinazolin-4(3H)-one] | < 100 | < 100 | < 100 | < 100 | – | – | –
C[C@H](Nc1ncnc(N)c1C#Cc1cncnc1)c1nc2cccc(Cl)c2c(=O)n1-c1cc(F)cc(F)c1 [Compound 41a, (S)-2-(1-(6-amino-5-(pyrimidin-5-ylethynyl)pyrimidin-4-ylamino)ethyl)-5-chloro-3-(3,5-difluorophenyl)quinazolin-4(3H)-one] | – | < 100 | – | – | > 1000 | > 1000 | > 1000
C[C@H](Nc1ncnc(N)c1C#Cc1ccccn1)c1nc2cccc(Cl)c2c(=O)n1-c1cc(F)cc(F)c1 [Compound 45a, (S)-2-(1-(6-amino-5-(pyridin-2-ylethynyl)pyrimidin-4-ylamino)ethyl)-5-chloro-3-(3,5-difluorophenyl)quinazolin-4(3H)-one] | – | < 100 | – | – | > 1000 | > 1000 | > 1000
C[C@H](Nc1ncnc(N)c1C#Cc1ccc(F)cn1)c1nc2cccc(O)c2c(=O)n1-c1ccccc1 [Compound 52a, (S)-2-(1-((6-amino-5-((5-fluoropyridin-2-yl)ethynyl)pyrimidin-4-yl)amino)ethyl)-5-hydroxy-3-phenylquinazolin-4(3H)-one] | – | < 100 | – | – | > 1000 | > 1000 | > 1000
C[C@H](Nc1ncnc(N)c1C#Cc1cnccn1)c1nc2cccc(C#N)c2c(=O)n1-c1ccccc1 [Compound 55a, (S)-2-(1-((6-amino-5-(pyrazin-2-ylethynyl)pyrimidin-4-yl)amino)ethyl)-4-oxo-3-phenyl-3,4-dihydroquinazoline-5-carbonitrile] | – | < 100 | – | – | > 1000 | > 1000 | > 1000
Cc1cccc2c(=O)n(-c3ccccc3)c([C@H](C)Nc3ncnc(N)c3C#Cc3ccc(F)cn3)nc12 [Compound 56a, (S)-2-(1-((6-amino-5-((5-fluoropyridin-2-yl)ethynyl)pyrimidin-4-yl)amino)ethyl)-8-methyl-3-phenylquinazolin-4(3H)-one] | – | < 100 | – | – | > 1000 | > 1000 | > 1000
CCCCc1cccc(-n2c([C@H](C)Nc3ncnc(N)c3C#Cc3ccc(F)cn3)nc3cccc(Cl)c3c2=O)c1 [Compound 57a, (S)-2-(1-((6-amino-5-((5-fluoropyridin-2-yl)ethynyl)pyrimidin-4-yl)amino)ethyl)-3-(3-butylphenyl)-5-chloroquinazolin-4(3H)-one] | – | < 100 | – | – | > 1000 | > 1000 | > 1000
CCc1cccc(-n2c([C@H](C)Nc3ncnc(N)c3C#Cc3ccc(F)cn3)nc3cccc(Cl)c3c2=O)c1 [Compound 61a, (S)-2-(1-((6-amino-5-((5-fluoropyridin-2-yl)ethynyl)pyrimidin-4-yl)amino)ethyl)-5-chloro-3-(3-ethylphenyl)quinazolin-4(3H)-one] | – | < 100 | – | – | > 1000 | > 1000 | > 1000
COc1cc(F)cc(C#Cc2c(N)ncnc2NC(C)c2nc3c(F)ccc(F)c3c(=O)n2-c2ccccc2)c1 (centres unmarked) [Compound 63a, 2-(1-((6-amino-5-((3-fluoro-5-methoxyphenyl)ethynyl)pyrimidin-4-yl)amino)ethyl)-5,8-difluoro-3-phenylquinazolin-4(3H)-one] | – | < 100 | – | – | > 1000 | > 1000 | > 1000
COc1cc(F)cc(C#Cc2c(N)ncnc2N[C@@H](C)c2nc3c(F)cccc3c(=O)n2-c2ccccc2)c1 [Compound 64a, (S)-2-(1-((6-amino-5-((3-fluoro-5-methoxyphenyl)ethynyl)pyrimidin-4-yl)amino)ethyl)-8-fluoro-3-phenylquinazolin-4(3H)-one] | – | < 100 | – | – | > 1000 | > 1000 | > 1000
C[C@H](Nc1ncnc(N)c1C#Cc1cnccn1)c1nc2cccc(C(F)F)c2c(=O)n1-c1cc(F)cc(F)c1 [Compound 66a, (S)-2-(1-((6-amino-5-(pyrazin-2-ylethynyl)pyrimidin-4-yl)amino)ethyl)-5-(difluoromethyl)-3-(3,5-difluorophenyl)quinazolin-4(3H)-one] | – | < 100 | – | – | > 1000 | > 1000 | > 1000
C[C@H](Nc1ncnc(N)c1C#Cc1ccc(F)cn1)c1nc2cccc(C(F)(F)F)c2c(=O)n1-c1ccccc1 [Compound 68a, (S)-2-(1-((6-amino-5-((5-fluoropyridin-2-yl)ethynyl)pyrimidin-4-yl)amino)ethyl)-3-phenyl-5-(trifluoromethyl)quinazolin-4(3H)-one] | – | < 100 | – | – | > 1000 | > 1000 | > 1000
C[C@H](Nc1ncnc(N)c1C#Cc1cnccn1)c1nc2cccc(C(F)F)c2c(=O)n1-c1cccc(C#N)c1 [Compound 71a, (S)-3-(2-(1-((6-amino-5-(pyrazin-2-ylethynyl)pyrimidin-4-yl)amino)ethyl)-5-(difluoromethyl)-4-oxoquinazolin-3(4H)-yl)benzonitrile] | – | < 100 | – | – | > 1000 | > 1000 | > 1000
C[C@H](Nc1ncnc(N)c1C#Cc1ccc(F)cn1)c1nc2cccc(C(F)F)c2c(=O)n1-c1cc(F)cc(F)c1 [Compound 77a, (S)-2-(1-((6-amino-5-((5-fluoropyridin-2-yl)ethynyl)pyrimidin-4-yl)amino)ethyl)-5-(difluoromethyl)-3-(3,5-difluorophenyl)quinazolin-4(3H)-one] | – | < 100 | – | – | > 1000 | > 1000 | > 1000
C[C@H](Nc1ncnc(N)c1C#Cc1cnccn1)c1nc2cccc(Cl)c2c(=O)n1-c1cc(F)cc(F)c1 [Compound 85a, (S)-2-(1-((6-amino-5-(pyrazin-2-ylethynyl)pyrimidin-4-yl)amino)ethyl)-5-chloro-3-(3,5-difluorophenyl)quinazolin-4(3H)-one] | – | < 100 | – | – | > 1000 | > 1000 | > 1000

Further lines, results first:

IC50 (PI3Kα; bound given in nM) [nM] | IC50 (PI3Kδ) [nM] | IC50 (PI3Kβ; bound given in nM) [nM] | IC50 (PI3Kγ; bound given in nM) [nM] | IC50 (PI3Kα; bound given in uM) [nM] | IC50 (PI3Kβ; bound given in uM) [nM] | IC50 (PI3Kγ; bound given in uM) [nM] | Compound
< 100 | < 100 | < 100 | < 100 | – | – | – | C[C@H](Nc1ncnc(N)c1C#Cc1cnc(N)nc1)c1nc2cccc(Cl)c2c(=O)n1-c1ccccc1 [Compound 33a, (S)-2-(1-(6-amino-5-((2-aminopyrimidin-5-yl)ethynyl)pyrimidin-4-ylamino)ethyl)-5-chloro-3-phenylquinazolin-4(3H)-one]
– | < 100 | – | – | > 1000 | > 1000 | > 1000 | Cc1ccc(Cl)c2c(=O)n(-c3ccccc3)c([C@H](C)Nc3ncnc(N)c3C#Cc3ccc(F)cn3)nc12 [Compound 53a, (S)-2-(1-((6-amino-5-((5-fluoropyridin-2-yl)ethynyl)pyrimidin-4-yl)amino)ethyl)-5-chloro-8-methyl-3-phenylquinazolin-4(3H)-one]
– | < 100 | – | – | > 1000 | > 1000 | > 1000 | C[C@H](Nc1ncnc(N)c1C#Cc1ccc(F)cn1)c1nc2cccc(Cl)c2c(=O)n1-c1cccc(-c2ccccc2)c1 [Compound 60a, (S)-3-([1,1′-biphenyl]-3-yl)-2-(1-((6-amino-5-((5-fluoropyridin-2-yl)ethynyl)pyrimidin-4-yl)amino)ethyl)-5-chloroquinazolin-4(3H)-one]
– | < 100 | – | – | > 1000 | > 1000 | > 1000 | COc1cc(F)cc(C#Cc2c(N)ncnc2N[C@@H](C)c2nc3cccc(F)c3c(=O)n2-c2ccccc2)c1 [Compound 65a, (S)-2-(1-((6-amino-5-((3-fluoro-5-methoxyphenyl)ethynyl)pyrimidin-4-yl)amino)ethyl)-5-fluoro-3-phenylquinazolin-4(3H)-one]
– | < 100 | – | – | > 1000 | > 1000 | > 1000 | C[C@H](Nc1ncnc(N)c1C#Cc1ccc(F)cn1)c1nc2cccc(C(F)F)c2c(=O)n1-c1cccc(C#N)c1 [Compound 70a, (S)-3-(2-(1-((6-amino-5-((5-fluoropyridin-2-yl)ethynyl)pyrimidin-4-yl)amino)ethyl)-5-(difluoromethyl)-4-oxoquinazolin-3(4H)-yl)benzonitrile]
– | < 100 | – | – | > 1000 | > 1000 | > 1000 | Cc1ccc(F)c2nc([C@H](C)Nc3ncnc(N)c3C#Cc3ccc(F)cn3)n(-c3cccc(C#N)c3)c(=O)c12 [Compound 72a, (S)-3-(2-(1-((6-amino-5-((5-fluoropyridin-2-yl)ethynyl)pyrimidin-4-yl)amino)ethyl)-8-fluoro-5-methyl-4-oxoquinazolin-3(4H)-yl)benzonitrile]
– | < 100 | – | – | > 1000 | > 1000 | > 1000 | CC[C@H](Nc1ncnc(N)c1C#Cc1cnccn1)c1nc2cccc(C(F)F)c2c(=O)n1-c1cc(F)cc(F)c1 [Compound 74a, (S)-2-(1-((6-amino-5-(pyrazin-2-ylethynyl)pyrimidin-4-yl)amino)propyl)-5-(difluoromethyl)-3-(3,5-difluorophenyl)quinazolin-4(3H)-one]
– | < 100 | – | – | > 1000 | > 1000 | > 1000 | C[C@H](Nc1ncnc(N)c1C#Cc1ncc(F)cc1F)c1nc2cccc(Cl)c2c(=O)n1-c1ccccc1 [Compound 82a, (S)-2-(1-((6-amino-5-((3,5-difluoropyridin-2-yl)ethynyl)pyrimidin-4-yl)amino)ethyl)-5-chloro-3-phenylquinazolin-4(3H)-one]
